Experimental data taken from patent US10787650B2, “Artificial bioluminescent enzymes” (NATIONAL INSTITUTE OF ADVANCED INDUSTRIAL SCIENCE AND …, priority 2015, dated 2020).
Positions count from the first letter of the chain named. Entries after “also recorded” stand apart in the source; their conditions may differ. Values belong to the molecule of their own block, whether it stands above or below them.

How the values were obtained:
TPv2.4 = TPv2.4 (Homo sapiens, UniProt P42345); conditions: for bioluminescence intensity with TPv2.4: lysate of rapamycin-stimulated COS-7 cells, substrate 0.1 μg/μL; for luminescence intensity sustainability: compared with native coelenterazine
Chain of TPv2.4 (P42345 with tags, fused parts or gaps): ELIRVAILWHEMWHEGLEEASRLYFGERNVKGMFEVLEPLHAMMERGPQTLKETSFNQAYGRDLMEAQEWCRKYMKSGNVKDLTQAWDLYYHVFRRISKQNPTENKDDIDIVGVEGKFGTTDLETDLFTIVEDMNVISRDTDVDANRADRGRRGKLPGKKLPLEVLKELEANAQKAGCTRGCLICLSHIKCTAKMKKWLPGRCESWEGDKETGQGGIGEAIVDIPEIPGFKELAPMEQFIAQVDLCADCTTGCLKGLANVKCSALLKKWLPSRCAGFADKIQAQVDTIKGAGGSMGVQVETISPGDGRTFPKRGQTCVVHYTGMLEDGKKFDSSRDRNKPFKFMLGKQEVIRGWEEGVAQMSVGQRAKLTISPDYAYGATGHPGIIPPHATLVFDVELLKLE
Protocol: COS-7 cells were cultured in a 96-well plate, and the cells were transiently transfected with the pcDNA3.1(+) vector encoding TP2.4. After that, the cells were cultured for 2 days. After being stimulated with 10^−6 M rapamycin for 4 hours, the cells in each well were lysed with a cell lysis buffer (50 μl) for 20 minutes. After that, an aliquot of the lysate (10 μL) was transferred to a 96-well transparent-bottom plate. Separately, about 10 kinds of coelenterazine analogs (substrates, 25 μg) were dissolved in 25 μL of ethanol. The solution was further 10-fold diluted with an assay buffer (Promega) to prepare a solution having a final concentration of 0.1 μg/μL. The solution was named substrate solution. 50 μL of the substrate solution was simultaneously introduced into the lysate solution on the plate using a multipipette, and the plate was immediately moved into an image analyzer (LAS-4000, FujiFilm), followed by optical measurement every 5 minutes in a 30-second integration time mode.
The coelenterazine analogs subjected to the measurement in this research were 9 kinds from “Coelenterazine Sampler Kit” of Promokine, i.e., native coelenterazine (nCTZ), coelenterazine h (CTZ h), coelenterazine f (CTZ f), coelenterazine i (CTZ i), coelenterazine n (CTZ n), coelenterazine cp (CTZ-cp), coelenterazine hcp (CTZ hcp), coelenterazine fcp (CTZ fcp), and coelenterazine ip (CTZ ip).

ALuc16 [1] = test: Circular dichroism (CD) measurement of metal cation-mixed ALuc16; conditions: for effect on structure of ALuc16 (CD spectra, 222 nm): varying cation concentrations
Protocol: Circular dichroism (CD) measurement was further conducted for reasoning the cation-driven degradation of ALuc16 activities (FIG. 9). Samples were prepared by mixing varying concentrations of Pb(II) or Al(III) with column-purified and dialyzed ALuc16, and were measured with a CD spectrometer (JASCO, Japan) after preparation.

ALuc16 [2] = test: Metal cation-driven optical intensities of ALuc16 (purified enzyme); assay type: biochemical
Protocol: The metal cation-driven optical properties were estimated with ALuc16 (FIG. 6). A metal cation-free sample of ALuc16 was prepared beforehand as follows: we first generated a DNA construct of ALuc16 carrying a Strep-II tag at the C-terminus via PCR. The construct was then cloned into a pOPTHM vector (providing a cleavable N-terminal His6-MBP tag), and expressed in the bacterial strain Shuffle T7 Express (New England Biolabs) with 0.3 mM IPTG induction. […] The lysate was centrifuged at 18,000 rpm for 40 minutes, and then the supernatant was passed over a 5 mL HisTrap HP column (GE Healthcare). […] The eluted sample was dialyzed to a metal-cation-free Tris-HCl buffer (0.05 M, pH 8.2) at 4° C. for 24 hours, and finally adjusted to a concentration of 1 mg/ml by dilution. […] Meanwhile, the corresponding substrate solution carrying nCTZ (Promega) was diluted 100-fold with the cation-free Tris-HCl buffer (Solution B). 50 μL of Solution B was simultaneously injected into Solution A in the 96-well plate with a multichannel micropipette (Gilson). The microplate was immediately moved to an image analyzer (LAS-4000, FujiFilm) equipped with a cooled charge-coupled device (CCD) camera, and the optical intensities were simultaneously estimated in a precision mode. The measurements were conducted in triplicate (n=3). The optical images were analyzed with Multi Gauge V3.2 (FujiFilm). […] The experiment was conducted by the same method as that of FIG. 6. In the inset, the optical image taken with LAS-4000 (FujiFilm) is shown.

Fridericia luciferase = conditions: cited from earlier work
OLuc = OLuc (Oplophorus gracilirostris, UniProt Q9GV45); conditions: cited from earlier work
Chain of OLuc (Q9GV45 28-196): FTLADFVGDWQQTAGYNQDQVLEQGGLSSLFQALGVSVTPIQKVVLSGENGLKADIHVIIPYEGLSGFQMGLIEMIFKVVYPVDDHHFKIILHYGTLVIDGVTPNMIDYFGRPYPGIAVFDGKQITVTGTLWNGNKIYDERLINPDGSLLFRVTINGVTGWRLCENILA

ALuc16 [3] = test: Metal cation-driven variance of bioluminescence spectra of ALuc16; assay type: biochemical; conditions: 100 μg/mL cation
Protocol: The corresponding bioluminescence spectra (FIG. 6(B)) were also measured using the same method as that of FIG. 6(A). In a 200 μL PCR tube, 50 μL of the mixture of ALuc16 and a metal cation (Ca(II), Fe(III), Ni(II), Zn(II), Mg(II), or Cr(VI); concentration: 100 μg/mL) in the metal-cation-free Tris-HCl buffer (Solution A) was further mixed with 10 μL of an nCTZ solution (Solution B). The tube was immediately moved into the chamber of a precision spectrophotometer (AB-1850, ATTO) (FIG. 6(B)), and the consequent spectra were taken in an integration of 30 seconds.

ALuc16 [4] = test: Cation-driven long-term stability of optical intensities of ALuc16; assay type: biochemical; conditions: 60 minutes after substrate injection
Protocol: The long-term stability of optical intensities was estimated by the same method as that of FIG. 6(A) (FIG. 8(A)). The microplate was placed in the chamber of LAS-4000, and the optical intensities were monitored every 5 minutes, after substrate injection, for a duration of 60 minutes.

[5] = Proton-dependent optical intensities and optical stability of ALucs (COS-7 cell lysate); assay type: biochemical, African green monkey; conditions: for elevation of optical intensities at pH 7 as compared to pH 6: COS-7 lysate, nCTZ; for intensities as share of the initial intensities 20 minutes after substrate injection: pH 9, coelenterazine analog
Protocol: The proton-driven optical intensities of ALucs were calculated to help elucidate the proton-bioluminescence relationship (FIG. 4). […] The cells were cultured and lysed by the same method as that of FIG. 2(B). Then, 10 μL of the lysates in the plate were simultaneously mixed with 40 µL of the substrate solution, which was prepared by mixing a native coelenterazine (nCTZ) stock (FIG. 4(B)) with an aliquot of the universal buffer with the pH ranging from 4 to 9 (final concentration of the substrate: 0.1 mg/ml). Immediately after the substrate injection, the plate was moved into an image analyzer (LAS-4000, FujiFilm), and relative optical intensities were integrated for 30 seconds. The time course of the intensities was estimated every 5 minutes for 20 minutes (FIG. 4(D)).

[6] = Luminescence activity of novel artificial bioluminescent enzymes (COS-7 cell lysate); assay type: biochemical, African green monkey; conditions: COS-7 lysate, native coelenterazine
Protocol: African green monkey kidney-derived COS-7 cells were cultured using a 96-well microplate. The COS-7 cells were grown until occupying 90% of the bottom-surface area of the culture plate, and, as shown in FIG. 19 and FIG. 20, were each transiently transfected with a pcDNA 3.1(+) vector (Invitrogen) encoding each luminescent enzyme with a lipofection reagent (TransIT-LT1, Mirus). After that, the cells were further cultured for about 1 day. After the culture, cell lysates were prepared using a cell lysis agent (Lysis buffer, Promega), and 5 μL each of the cell lysates was taken from each well and transferred to a 96-well microplate for measurement. An assay buffer (50 μL) containing native coelenterazine was simultaneously added to each well using a multichannel pipette. Immediately after the addition of the assay buffer, the microplate was moved into the black box of an image analyzer (LAS-4000, FujiFilm), and luminescence images were measured with a CCD camera (FIG. 19 and FIG. 20).

[7] = metal cation-free Tris-HCl buffer (pH 8.2, 0.05 M), nCTZ

bioluminescence intensity with TPv2.4 (TPv2.4): strongest bioluminescence intensities
Molecule: native coelenterazine [nCTZ]

Molecule: [Cl][Al]([Cl])[Cl] [Al(III)]
effect on structure of ALuc16 (CD spectra, 222 nm) (ALuc16 [1]): α-helical portion is gradually decreased; also recorded: destroy the tertiary structure of ALuc16; also recorded: the structure of ALuc16 is denatured

Molecule: [Cl][Mn][Cl] [Mn(II)]
effect on optical intensities (activities) of ALuc16 (ALuc16 [2]; [7]): boosting effect with Mn(II) was not observed | effect on activities of Fridericia luciferase (Fridericia luciferase): elevate

bioluminescence intensity with TPv2.4 (TPv2.4): strongest bioluminescence intensities
Molecule: coelenterazine f [CTZ f]

Molecule: [Cl][Cd][Cl] [Cd(II)]
effect on optical intensity of OLuc (OLuc): inhibited the optical intensity

Molecule: [Cl][Pb][Cl] [Pb(II)]
concentration by which the optical intensity was quickly decreased (ALuc16 [2]; Tris-HCl, pH 8.2): 1 µg/mL | detection limit (ALuc16 [2]; dose-response of ALuc16 activities): around 0.4 μg/mL | effect on optical intensities (activities) of ALuc16 (ALuc16 [2]; [7]): suppress; also recorded: quickly inhibited | levels that showed basal noise CD spectra (ALuc16 [1]): higher than 1 μg/mL | effect on structure of ALuc16 (CD spectra, 222 nm) (ALuc16 [1]): destroy the tertiary structure of ALuc16; also recorded: the structure of ALuc16 is denatured

Molecule: [Cl-].[Cl-].[Zn+2] [Zn(II)]
effect on optical intensities (activities) of ALuc16 (ALuc16 [2]; [7]): suppress | effect on optical intensity of OLuc (OLuc): inhibited the optical intensity

bioluminescence intensity with TPv2.4 (TPv2.4): weak luminescence intensities
Molecule: Oc1ccc(Cc2nc3c(CC4CCCC4)nc(-c4ccc(O)cc4)cn3c2O)cc1 [CTZ cp, coelenterazine cp]

Molecule: [Cl][Ni][Cl] [Ni(II)]
red shift of the bioluminescence spectrum (ALuc16 [3]): 4 nm

bioluminescence intensity with TPv2.4 (TPv2.4): weak luminescence intensities
Molecule: coelenterazine ip [CTZ ip]

effect on optical intensities (activities) of ALuc16 (ALuc16 [2]; [7]): little effect
Molecule: [Li+] [Li^+]

bioluminescence intensity with TPv2.4 (TPv2.4): strongest bioluminescence intensities
Molecule: coelenterazine h [CTZ h]

initial luminescence intensity retained (TPv2.4; 20 minutes after substrate injection): about 60%
Molecule: coelenterazine n [CTZ n]
luminescence intensity sustainability (TPv2.4): longer than that of native coelenterazine

Molecule: [Cl][Cu][Cl] [Cu(II)]
effect on optical intensities (activities) of ALuc16 (ALuc16 [2]; [7]): suppress | effect on optical intensity of OLuc (OLuc): inhibited the optical intensity

Molecule: Cr(VI)
elevation of ALuc16 activities / optical intensities (ALuc16 [2]; [7]): about 2 times

effect on optical intensities (activities) of ALuc16 (ALuc16 [2]; [7]): little effect
Molecule: [K+] [K^+]

Molecule: [Cl-].[Cl-].[Mg+2] [Mg(II)]
effect on long-term stability of bioluminescence intensities (ALuc16 [4]): seldom influences the long-term stability | effect on activities of Fridericia luciferase (Fridericia luciferase): elevate

luminescence half-life from substrate injection (TPv2.4): about 15 minutes
Molecule: O=c1c(Cc2ccc(I)cc2)nc2c(Cc3ccccc3)[nH]c(-c3ccc(O)cc3)cn1-2 [CTZ i, coelenterazine i]
luminescence intensity sustainability (TPv2.4): longer than that of native coelenterazine

bioluminescence intensity with TPv2.4 (TPv2.4): weak luminescence intensities
Molecule: Oc1ccc(-c2cn3c(O)c(Cc4ccc(F)cc4)nc3c(CC3CCCC3)n2)cc1 [CTZ fcp, coelenterazine fcp]

effect on optical intensities (activities) of ALuc16 (ALuc16 [2]; [7]): suppress
Molecule: [Cl-].[Cl-].[Co+2] [Co(II)]

bioluminescence intensity with TPv2.4 (TPv2.4): weak luminescence intensities
Molecule: Oc1ccc(-c2cn3c(O)c(Cc4ccccc4)nc3c(CC3CCCC3)n2)cc1 [CTZ hcp, coelenterazine hcp]

effect on optical intensities (activities) of ALuc16 (ALuc16 [2]; [7]): little effect
Molecule: N [NH4^+]

effect on optical intensities (activities) of ALuc16 (ALuc16 [2]; [7]): little effect
Molecule: [Na+] [Na^+]

B1: ALuc23: conventional artificial luciferase from the inventor's previous research, SEQ ID NO: 32 (protein)
chain: MMGIKVLFALICFALVQANPTENKDDIDIVGVEGKFGTTDLETDLFTIVEDMNVISRDTDVDANRADRGRRGKLPGKKLPLEVLKELEANAQKAGCTRGCLICLSHIKCTAKMKKWLPGRCESWEGDKETGQGGIGEAIVDIPEIPGFKELAPMEQFIAQVDLCADCTTGCLKGLANVKCSALLKKWLPSRCAGFADKIQAQVDTIKGAGGS
modifications: Synthetic Sequence - ALuc23
elevation of optical intensities at pH 7 as compared to pH 6 [5]: about 5 fold | intensities as share of the initial intensities 20 minutes after substrate injection [5]: 41%

B2: ALuc34: conventional artificial luciferase, SEQ ID NO: 35 (protein)
chain: B1 chain with P20M, T21M, E22D, N23Y, I27D, I29K
modifications: Synthetic Sequence - ALuc34
elevation of optical intensities at pH 7 as compared to pH 6 [5]: about 5 fold | intensities as share of the initial intensities 20 minutes after substrate injection [5]: 60%

B3: ALuc49: artificial luciferase, SEQ ID NO: 9 (protein)
chain: MMGIKVLFALVCLALVQAKPTEDEDEDDIVDVVGNFWAIGVDNDRDFTISADRGKLPGKKLPKEVLIEIEANAKKAGCTRGCLICLSKIKCTAKMKKWLPGRCHSYEGDKDTGQGGIGEPIVDAPEIPGFKDLTPMEQFIAQVDLCADCTTGCLKGLANVKCSALLKKWLPDRCASFADKIQKEVDYIKGLAGS
luminescence intensities as compared to conventional ALucs (e.g., ALuc16 and ALuc30) [6]: even stronger luminescence intensities

B4: ALuc46: artificial luciferase, SEQ ID NO: 6 (protein)
chain: B3 chain with K183S, D186A, Y187T
luminescence intensities as compared to conventional ALucs (e.g., ALuc16 and ALuc30) [6]: relatively low luminescence intensities

B5: ALuc50: artificial luciferase, SEQ ID NO: 10 (protein)
chain: B3 chain with Y187F
luminescence intensities as compared to conventional ALucs (e.g., ALuc16 and ALuc30) [6]: even stronger luminescence intensities

B6: ALuc47: artificial luciferase, SEQ ID NO: 7 (protein)
chain: B3 chain with D186G, Y187T, A192L
luminescence intensities as compared to conventional ALucs (e.g., ALuc16 and ALuc30) [6]: relatively low luminescence intensities

B7: ALuc41: artificial luciferase, SEQ ID NO: 2 (protein)
chain: B3 chain with Y187T
luminescence intensities as compared to conventional ALucs (e.g., ALuc16 and ALuc30) [6]: relatively low luminescence intensities
